Publication PMC6009879, “Open saccharin-based secondary sulfonamides as potent and selective inhibitors of cancer-related carbonic anhydrase IX and XII isoforms” (Journal of Enzyme Inhibition and Medicinal Chemistry, 2016)

Legend:
Assay type in all cases: biochemical
[1] = target: T1, hCA I (Homo sapiens, UniProt P00915); test: stopped-flow CO2 hydrase assay, hCA I; settings: recombinant hCA I; mean from 3 different assays, errors ±5–10%
T1 construct: made in house
Experimental: (§1) An applied photophysics stopped-flow instrument has been used for assaying the CA-catalyzed CO2 hydration activity. Phenol red (0.2 mM) has been used as indicator, working at the absorbance maximum of 557 nm, with 20 mM Hepes (pH 7.5, for α-CAs) as buffer, and 20 mM NaClO4 (for maintaining constant the ionic strength), following the initial rates of the CA-catalyzed CO2 hydration reaction for a period of 10–100 s. The CO2 concentrations ranged from 1.7 to 17 mM for the determination of the kinetic parameters and inhibition constants. […] The uncatalyzed rates were determined in the same manner and subtracted from the total observed rates. Stock solutions of each inhibitor (1 µM) were prepared in distilled-deionized water and dilutions up to 0.1 nM were done thereafter with the assay buffer. […] The inhibition constants were obtained by non-linear least-squares methods using PRISM 3 and the Cheng–Prusoff equation, and represent the average from at least three different determinations. All recombinant CA isoforms were obtained in-house as previously reported[38]^,[39].

[2] = target: T2, hCA II (Homo sapiens, UniProt P00918); test: stopped-flow CO2 hydrase assay, hCA II; settings: recombinant hCA II; mean from 3 different assays, errors ±5–10%
T2 construct: made in house
Experimental: as §1

[3] = target: T3, hCA IX (Homo sapiens, UniProt Q16790); test: stopped-flow CO2 hydrase assay, hCA IX; settings: recombinant hCA IX; mean from 3 different assays, errors ±5–10%
T3 construct: made in house
Experimental: as §1

[4] = target: T4, hCA XII (Homo sapiens, UniProt O43570); test: stopped-flow CO2 hydrase assay, hCA XII; settings: recombinant hCA XII; mean from 3 different assays, errors ±5–10%
T4 construct: made in house
Experimental: as §1

T1 sequence (P00915 whole entry): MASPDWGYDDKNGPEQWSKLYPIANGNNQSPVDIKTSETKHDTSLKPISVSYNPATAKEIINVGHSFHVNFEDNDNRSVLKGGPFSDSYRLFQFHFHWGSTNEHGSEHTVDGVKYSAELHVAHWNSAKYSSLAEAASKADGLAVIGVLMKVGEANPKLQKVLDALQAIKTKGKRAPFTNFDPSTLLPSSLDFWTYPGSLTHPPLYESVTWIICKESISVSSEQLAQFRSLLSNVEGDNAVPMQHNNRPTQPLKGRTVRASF
T4 sequence (O43570 25-354): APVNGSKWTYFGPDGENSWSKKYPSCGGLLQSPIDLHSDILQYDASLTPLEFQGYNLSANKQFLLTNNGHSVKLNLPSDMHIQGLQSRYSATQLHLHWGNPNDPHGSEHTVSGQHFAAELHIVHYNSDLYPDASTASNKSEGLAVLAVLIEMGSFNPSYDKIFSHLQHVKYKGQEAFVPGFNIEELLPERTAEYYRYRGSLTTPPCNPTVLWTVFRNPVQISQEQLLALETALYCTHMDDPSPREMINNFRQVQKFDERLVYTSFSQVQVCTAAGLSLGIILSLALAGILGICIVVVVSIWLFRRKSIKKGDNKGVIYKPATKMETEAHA

| SMILES | Ki [1] [nM] | Ki [2] [nM] | Ki [3] [nM] | Ki [4] [nM] |
| --- | --- | --- | --- | --- |
| Cc1ccccc1CNS(=O)(=O)c1ccccc1CO [Compound 1, 2-(Hydroxymethyl)-N-(2-methylbenzyl)benzenesulfonamide] | > 10000 | > 10000 | 218 | 4.6 |
| O=S(=O)(NCc1ccccc1C(F)(F)F)c1ccccc1CO [Compound 2, 2-(Hydroxymethyl)-N-(2-(trifluoromethyl)benzyl)benzenesulfonamide] | > 10000 | > 10000 | 200 | 54 |
| O=[N+]([O-])c1ccccc1CNS(=O)(=O)c1ccccc1CO [Compound 3, 2-(Hydroxymethyl)-N-(2-nitrobenzyl)benzenesulfonamide] | > 10000 | > 10000 | 104 | 383 |
| O=S(=O)(NCc1ccccc1Br)c1ccccc1CO [Compound 4, N-(2-bromobenzyl)-2-(hydroxymethyl)benzenesulfonamide] | > 10000 | > 10000 | 113 | 323 |
| Cc1cccc(CNS(=O)(=O)c2ccccc2CO)c1 [Compound 5, 2-(Hydroxymethyl)-N-(3-methylbenzyl)benzenesulfonamide] | > 10000 | > 10000 | 223 | 4.3 |
| O=S(=O)(NCc1cccc(C(F)(F)F)c1)c1ccccc1CO [Compound 6, 2-(Hydroxymethyl)-N-(3-(trifluoromethyl)benzyl)benzenesulfonamide] | > 10000 | > 10000 | 238 | 4.4 |
| O=[N+]([O-])c1cccc(CNS(=O)(=O)c2ccccc2CO)c1 [Compound 7, 2-(Hydroxymethyl)-N-(3-nitrobenzyl)benzenesulfonamide] | > 10000 | > 10000 | 176 | 382 |
| O=S(=O)(NCc1cccc(F)c1)c1ccccc1CO [Compound 8, N-(3-fluorobenzyl)-2-(hydroxymethyl)benzenesulfonamide] | > 10000 | > 10000 | 268 | 247 |
| O=S(=O)(NCc1cccc(Br)c1)c1ccccc1CO [Compound 9, N-(3-bromobenzyl)-2-(hydroxymethyl)-benzenesulfonamide] | > 10000 | > 10000 | 267 | 64 |
| Cc1ccc(CNS(=O)(=O)c2ccccc2CO)cc1 [Compound 10, 2-(Hydroxymethyl)-N-(4-methylbenzyl)benzenesulfonamide] | > 10000 | > 10000 | 120 | 5.7 |
| O=S(=O)(NCc1ccc(C(F)(F)F)cc1)c1ccccc1CO [Compound 11, 2-(Hydroxymethyl)-N-(4-(trifluoromethyl)benzyl)benzenesulfonamide] | > 10000 | > 10000 | 253 | 7.2 |
| N#Cc1ccc(CNS(=O)(=O)c2ccccc2CO)cc1 [Compound 12, N-(4-cyanobenzyl)-2-(hydroxymethyl)benzenesulfonamide] | > 10000 | > 10000 | 126 | 57 |
| O=[N+]([O-])c1ccc(CNS(=O)(=O)c2ccccc2CO)cc1 [Compound 13, 2-(Hydroxymethyl)-N-(4-nitrobenzyl)benzenesulfonamide] | > 10000 | > 10000 | 20 | 54 |
| O=S(=O)(NCc1ccc(F)cc1)c1ccccc1CO [Compound 14, N-(4-fluorobenzyl)-2-(hydroxymethyl)benzenesulfonamide] | > 10000 | > 10000 | 26 | 63 |
| O=S(=O)(NCc1ccc(Cl)cc1)c1ccccc1CO [Compound 15, N-(4-chlorobenzyl)-2-(hydroxymethyl)benzenesulfonamide] | > 10000 | > 10000 | 154 | 48 |
| O=S(=O)(NCc1ccc(Br)cc1)c1ccccc1CO [Compound 16, N-(4-bromobenzyl)-2-(hydroxymethyl)benzenesulfonamide] | > 10000 | > 10000 | 145 | 432 |
| O=S(=O)(NCc1c(F)cccc1F)c1ccccc1CO [Compound 17, N-(2,6-difluorobenzyl)-2-(hydroxymethyl)benzenesulfonamide] | > 10000 | > 10000 | 296 | 45 |
| O=S(=O)(NCc1ccc(Cl)c(Cl)c1)c1ccccc1CO [Compound 18, N-(3,4-dichlorobenzyl)-2-(hydroxymethyl)benzenesulfonamide] | > 10000 | > 10000 | 298 | 40 |
| O=S(=O)(NCc1cccc2ccccc12)c1ccccc1CO [Compound 19, 2-(Hydroxymethyl)-N-(naphthalen-1-ylmethyl)benzenesulfonamide] | > 10000 | > 10000 | 294 | 345 |
| O=S(=O)(NCC(O)c1ccccc1)c1ccccc1CO (stereo not drawn) [Compound 20, N-(2-hydroxy-2-phenylethyl)-2-(hydroxymethyl)benzenesulfonamide] | > 10000 | > 10000 | 224 | 64 |
| COc1cccc(C(O)CNS(=O)(=O)c2ccccc2CO)c1 (stereo not drawn) [Compound 21, N-(2-hydroxy-2-(3-methoxyphenyl)ethyl)-2-(hydroxymethyl)benzenesulfonamide] | > 10000 | > 10000 | 31 | 355 |
